The text below walks through data of patent US20250213545A1 (AJOU UNIVERSITY INDUSTRY-ACADEMIC COOPERATION FOUNDATION, priority 2022, published 2025).

The test system of test [1] is Parkinson's disease model (6-OHDA model) mice. The experiment in a line: Bridge test (acrossing time on a 1 m bar). Particulars: 20 mg/kg orally once a day. The test is classed as in vivo, C57BL/6 mice. Here is the method:
(§1) Specifically, 8-week-old C57BL/6 mice (Daehan Biolink, Eumseong, North Chungcheong Province, Korea) were anesthetized by intraperitoneal (i.p.) injection of 200 mg/kg of 2,2,2-tribromoethanol (Sigma-Aldrich), and they were placed in a stereotaxic apparatus (David Kopf Instruments, Tujunga, CA, USA) equipped With a mouse adapter. Using a Hamilton syringe (Hamilton, Bonaduz, Switzerland), 2 μL of 6-OHDA-HCl solution (2 mg/mL) (Sigma Aldrich) in 0.02% ascorbic acid was injected into the right striatum at the following stereotactic coordinates (mm from the bregma): IP+1.0; ML-1.8; DV −3.2. The skin was sutured, and the animal was removed from the stereotaxic apparatus and placed on a heating pad for 30 minutes. Normal control mice for the diseased mouse model were injected with a vehicle (0.02% ascorbic acid) instead of 6-OHDA-HCl solution.
(§2) Behavioral experiments were performed 18 days after 6-01-IDA injection, and mice were sacrificed 21 days after 6-01-IDA injection, and histological analysis was performed.
In order to test the animal model's sense of balance, a bridge test was performed to measure the time it took to pass from one side to the other side on a 1 m long bar (acrossing time).

Test [2] shares this test system. Nature of the test: Pole test (landing time). It counts as in vivo, C57BL/6 mice. Particulars: 20 mg/kg orally once a day. Here is the method:
as §1, §2
The mouse was placed on a bar with a diameter of 8 mm and a length of 55 cm, and a pole test was performed to measure the time it took for the mouse's four feet to come down to the floor (landing time).

For test [3] the test system is unchanged. Nature of the test: Cylinder test. Particulars: 6-OHDA+fexofenadine group; 20 mg/kg orally once a day. It counts as in vivo, C57BL/6 mice. The method, then:
as §1, §2

Test [4] relates to TH-positive neurons. Particulars: 6-OHDA+fexofenadine group; 20 mg/kg orally once a day; 21 days after 6-OHDA injection. The method, then: as §1, §2
The test system of test [5] is Iba-1 positive microglia. Nature of the test: Microglial (Iba-1) staining in substantia nigra and striatum, 6-OHDA model. It counts as in vivo, C57BL/6 mice. Particulars: 6-OHDA+fexofenadine group; 20 mg/kg orally once a day; 21 days after 6-OHDA injection. Here is the method: Specifically, 8-week-old C57BL/6 mice (Daehan Biolink, Eumseong, North Chungcheong Province, Korea) were anesthetized by intraperitoneal (i.p.) injection of 200 mg/kg of 2,2,2-tribromoethanol (Sigma-Aldrich), and they were placed in a stereotaxic apparatus (David Kopf Instruments, Tujunga, CA, USA) equipped With a mouse adapter.
Activated microglia were analyzed through staining with anti-Iba-1 antibody (Wako, 019-19741, 1:1,000 dilution). The brain tissue preparation and tissue staining method for this purpose were performed in the same manner as the TH staining method in Example 3-1, and the images were analyzed using an Axio scan. Z1 slide scanner (Carl Zeiss, Germany). The cell number was measured and analyzed as the average value of three sheets of each tissue.

Test [6] has as its system GFAP. Nature of the test: GFAP staining in cortex, striatum and substantia nigra, α-synuclein injection model. The test is classed as in vivo, C57BL/6 mice. Particulars: PFF-fexofenadine group vs PFF-PBS; 20 mg/kg orally once a day; day 30. The method, then:
The skin was sutured, and the animal was removed from the stereotaxic apparatus and placed on a heating pad for 30 minutes.

The subject of test [7] is α-synuclein aggregates. The experiment in a line: BiFC-α-syn Venus fluorescence in C. elegans Parkinson's disease model. It counts as in vivo. Particulars: Venus-αS C. elegans; fexofenadine, 2 days at 20° C.; vs control not treated. The text has this: (§3) For this purpose, A C. elegans Parkinson's disease model (Venus-αS) expressing BiFC-α-syn was produced by introducing plasmids that overexpress VN-linked α-synuclein in muscle cells of the pharynx and VC-linked α-synuclein in neurons that form synapses with muscle cells into wild-type Bristol N2 C. elegans purchased from the Caenorhabditis Genetics Center (CGC, University of Minnesota, St. Paul, MN) (Kim D-K et al., (2016). Autophagy. 12(10):1849-1863).

In test [8] the test system is BIFC-α-syn C. elegans Parkinson's disease model. Nature of the test: Pharyngeal pumping analysis. It counts as in vivo.
Description: as §3

The test system is the same in test [9]. The experiment in a line: Life-span analysis. The test is classed as in vivo.
Description: as §3
For this purpose, eggs laid by adults were grown to the L4 larval stage on NGM plates inoculated with K col. OP50 (CGC) at 20° C. When the L4 stage was reached, they were transferred to NGM plates including […] 5-fluoro-2′-deoxyuridine (Sigma-Aldrich, F0503) to prevent progeny production. The number of living and dead C. elegans was recorded every 1 or 2 days. Worms that burst, were buried or crawled out of the plate were also counted. Survival data were analyzed using OASIS2 (Survival Analysis Online Application for Lifespan Analysis http://sbi.postech.ac.kr/oasis/surv/).

Setting [10] is: 6-OHDA+fexofenadine group, 18 days after 6-OHDA injection.
Setting [11] is: normal mice (PBS-fexofenadine group).
[12] abbreviates: C. elegans wild-type N2 treated with fexofenadine.

Take `CC(C)(C(=O)O)c1ccc(C(O)CCCN2CCC(C(O)(c3ccccc3)c3ccccc3)CC2)cc1` (stereo not shown) [fexofenadine]: the acrossing time result in [1] (setting [10]) was “restored to a level similar to that of the normal mouse control group”; in test [1] (setting [11]), “improved compared to the normal mouse control group”. Further, the landing time entry is recorded as “about 6 seconds” in [2] (setting [10]) and “approximately 4.5 seconds” in test [2] (setting [11]). Moreover, the “motor ability (steps of forepaw opposite the damaged striatum vs undamaged)” value in test [3] is “restored to the level of the normal mouse control group”. In test [4], the “number of TH-positive neurons on the ipsilateral side of the substantia nigra” value is recorded as “recovered to a level similar to that of the normal mouse control group”. Further, in [5], the “number of Iba-1 positive microglia in the ipsilateral side of the striatum and substantia nigra” value is given as “reduced to a level similar to that of the normal mouse control group”. The “GFAP expression in the cortex, striatum and substantia nigra, ipsilateral and contralateral sides” value in test [6] was “significantly reduced”. The Venus fluorescence intensity result in [7] is on record as “significantly reduced”. The pharyngeal pumping ability result is “restored to a level similar to that of wild-type N2” in [8] (C. elegans Parkinson's disease model, 8 days after fexofenadine treatment) and “improves the pharyngeal pumping ability” in test [8] (setting [12]). Also, the lifespan entry in [9] (setting [12]) is recorded as “further extended”; in test [9] (fexofenadine-treated C. elegans Parkinson's disease model), “about 14 days”.
